In patent publication US9193729B2, “Inhibiting transient receptor potential ion channel TRPA1” (Cubist Pharmaceuticals, Inc., priority 2011, dated 2015):

Key:
[1] = tested on: serum biomarkers of hepatotoxicity; assay: Hepatotoxicity serum biomarker study in dogs, oral dose; type: in vivo, dog; conditions: dogs, 50 mg/kg PO
Experimental: The compound of Formula (Ia) was orally dosed to […] at dose levels of 5, 15 or 50 mg/kg using 30% Sulfobutylether β-cyclodextrin as the vehicle for assessment of safety as measured via serum chemistry biomarkers of hepatotoxicity or bile duct injury FIG. 5A, showing measurements of alanine aminotranferease [ALT], aspartate aminotranferease [AST], alkaline phosphatase [ALP] and gamma-glutamyl transferase [GGT] in the dogs at each dose level (each bar represents a measurement from 1 dog in the study). […] For example, the ALT levels were elevated up to about 60-fold in male dogs and up to about 130-fold in female beagle dogs following a single PO dose of 50 mg/kg.

hNav1.2 = hNav1.2 (Homo sapiens, UniProt Q99250); assay: Patch clamp selectivity, hNav1.2; type: cell-based; conditions: hNav1.2 vs TRPA1
Experimental: (§1) Data for TRPA1 inhibition and the selectivity of TRPA1 inhibition was obtained by this method for the compound of Formula (Ia) and included in Table 1 and Table 2. All currents were recorded in whole-cell configuration using EPC-9 and EPC-10 amplifiers and Patchmaster software (HEKA). […] The standard pipette solution consisted of 140 mM CsAsp, 10 mM EGTA, 10 mM HEPES, 2.27 mM MgCl2, 1.91 mM CaCl2, 4 mM MgATP, and 0.1-0.3 mM Na2GTP, with pH adjusted to 7.2 with CsOH. In addition, a solution containing 145 mM CsCl, 10 mM HEPES, 10 mM EGTA and 1 mM MgCl2 (pH 7.2 adjusted with CsOH) can be used. The standard bath solution contained 150 mM NaCl, 10 mM HEPES, 10 mM glucose, 4.5 mM KCl, 1 mM EGTA, 3 mM MgCl2, with pH adjusted to 7.4 with NaOH. In some instances, 2 mM CaCl2 was added in place of EGTA and the concentration of MgCl2 was reduced to 1 mM.
(§2) Data were collected either by continuous recordings at −60 mV or by applying voltage ramps from a holding potential of 0 mV every 4 s. […] Inward and outward currents were analyzed from the ramps at −80 and 80 mV, respectively. […]
(§3) Solutions were switched using a gravity-fed continuous focal perfusion system. […] Temperatures were confirmed using a thermistor (Warner Instruments, TA-29), with temperatures at the recorded cell estimated to be within +/−2° C. of those reported. […]

hTRPV4 = hTRPV4 (Homo sapiens, UniProt Q9HBA0); assay: Patch clamp selectivity, hTRPV4 (block); type: cell-based; conditions: hTRPV4 vs TRPA1
Experimental: as §1, §2, §3

hTRPV3 = molecular target: T1, hTRPV3 (Homo sapiens, UniProt Q8NET8); assay: Patch clamp selectivity, hTRPV3; type: cell-based; conditions: hTRPV3 vs TRPA1
T1 sequence (Q8NET8 1-790): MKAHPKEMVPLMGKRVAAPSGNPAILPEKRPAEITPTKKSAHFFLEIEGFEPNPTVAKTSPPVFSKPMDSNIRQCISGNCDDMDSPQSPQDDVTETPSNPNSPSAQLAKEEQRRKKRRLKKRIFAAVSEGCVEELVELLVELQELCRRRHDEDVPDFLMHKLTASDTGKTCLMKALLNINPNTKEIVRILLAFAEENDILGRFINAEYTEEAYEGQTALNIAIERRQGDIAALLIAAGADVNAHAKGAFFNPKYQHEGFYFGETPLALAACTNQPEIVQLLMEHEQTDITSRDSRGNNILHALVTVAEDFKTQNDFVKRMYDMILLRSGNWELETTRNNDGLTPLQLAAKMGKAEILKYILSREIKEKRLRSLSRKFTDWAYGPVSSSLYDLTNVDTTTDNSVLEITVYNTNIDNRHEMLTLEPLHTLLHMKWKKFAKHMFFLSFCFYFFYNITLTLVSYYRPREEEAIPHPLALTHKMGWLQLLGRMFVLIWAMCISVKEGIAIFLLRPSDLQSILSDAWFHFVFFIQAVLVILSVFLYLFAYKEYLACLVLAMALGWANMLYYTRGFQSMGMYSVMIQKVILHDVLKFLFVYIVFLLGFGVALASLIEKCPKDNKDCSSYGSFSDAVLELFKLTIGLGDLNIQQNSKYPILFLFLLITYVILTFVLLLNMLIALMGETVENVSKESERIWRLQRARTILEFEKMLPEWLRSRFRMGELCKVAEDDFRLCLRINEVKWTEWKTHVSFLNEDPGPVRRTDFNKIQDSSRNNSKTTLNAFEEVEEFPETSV
Experimental: as §1, §2, §3

Sequence of hNav1.2 (Q99250 whole entry): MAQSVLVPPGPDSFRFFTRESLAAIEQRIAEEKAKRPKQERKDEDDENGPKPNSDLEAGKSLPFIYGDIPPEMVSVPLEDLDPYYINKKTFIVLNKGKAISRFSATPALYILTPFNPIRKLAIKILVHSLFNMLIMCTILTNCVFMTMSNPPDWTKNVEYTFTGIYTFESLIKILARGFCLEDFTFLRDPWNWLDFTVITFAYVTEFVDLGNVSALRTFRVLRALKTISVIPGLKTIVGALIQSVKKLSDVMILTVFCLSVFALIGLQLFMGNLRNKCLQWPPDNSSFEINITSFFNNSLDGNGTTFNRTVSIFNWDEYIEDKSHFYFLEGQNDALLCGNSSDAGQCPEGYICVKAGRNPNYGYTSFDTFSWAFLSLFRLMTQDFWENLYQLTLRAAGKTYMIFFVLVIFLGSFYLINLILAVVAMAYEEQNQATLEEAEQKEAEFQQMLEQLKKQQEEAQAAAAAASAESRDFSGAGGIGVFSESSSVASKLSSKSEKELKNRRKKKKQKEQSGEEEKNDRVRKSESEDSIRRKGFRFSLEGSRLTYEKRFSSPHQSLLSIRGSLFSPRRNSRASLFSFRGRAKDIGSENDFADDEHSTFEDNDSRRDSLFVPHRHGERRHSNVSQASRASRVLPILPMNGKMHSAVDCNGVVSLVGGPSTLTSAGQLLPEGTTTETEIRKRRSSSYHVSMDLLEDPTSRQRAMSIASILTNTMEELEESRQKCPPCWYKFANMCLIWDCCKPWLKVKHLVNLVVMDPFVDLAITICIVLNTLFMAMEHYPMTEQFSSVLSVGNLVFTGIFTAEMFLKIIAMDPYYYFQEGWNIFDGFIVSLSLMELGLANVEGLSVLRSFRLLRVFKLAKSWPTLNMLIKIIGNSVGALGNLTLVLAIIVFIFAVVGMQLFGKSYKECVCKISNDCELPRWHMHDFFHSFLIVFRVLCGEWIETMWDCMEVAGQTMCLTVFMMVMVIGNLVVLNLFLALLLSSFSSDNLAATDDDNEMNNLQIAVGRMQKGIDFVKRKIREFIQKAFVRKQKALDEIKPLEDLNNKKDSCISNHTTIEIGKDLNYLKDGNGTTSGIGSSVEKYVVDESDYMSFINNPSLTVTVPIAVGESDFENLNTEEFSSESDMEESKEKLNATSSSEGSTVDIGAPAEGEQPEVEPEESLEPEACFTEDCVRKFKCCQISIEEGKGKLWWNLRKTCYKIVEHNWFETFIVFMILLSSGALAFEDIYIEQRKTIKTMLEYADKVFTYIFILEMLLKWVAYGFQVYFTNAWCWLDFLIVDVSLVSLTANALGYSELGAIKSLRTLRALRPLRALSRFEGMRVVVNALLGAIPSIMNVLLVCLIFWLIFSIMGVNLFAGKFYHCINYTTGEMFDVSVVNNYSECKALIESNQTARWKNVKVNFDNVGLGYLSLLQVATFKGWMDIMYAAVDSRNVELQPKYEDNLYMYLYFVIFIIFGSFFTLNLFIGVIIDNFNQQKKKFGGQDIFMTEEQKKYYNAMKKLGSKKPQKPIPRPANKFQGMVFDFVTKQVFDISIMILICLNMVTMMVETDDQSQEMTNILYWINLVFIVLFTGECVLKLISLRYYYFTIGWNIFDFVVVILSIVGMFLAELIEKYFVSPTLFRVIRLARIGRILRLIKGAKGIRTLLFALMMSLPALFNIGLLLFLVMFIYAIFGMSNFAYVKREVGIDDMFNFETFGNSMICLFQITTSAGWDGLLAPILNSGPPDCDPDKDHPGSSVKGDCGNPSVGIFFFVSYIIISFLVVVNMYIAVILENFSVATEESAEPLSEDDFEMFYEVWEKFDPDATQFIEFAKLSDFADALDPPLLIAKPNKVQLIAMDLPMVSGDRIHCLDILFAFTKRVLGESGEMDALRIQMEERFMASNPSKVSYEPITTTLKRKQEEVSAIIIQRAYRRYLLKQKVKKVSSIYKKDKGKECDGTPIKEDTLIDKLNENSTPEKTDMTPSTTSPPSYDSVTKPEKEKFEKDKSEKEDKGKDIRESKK
Sequence of hTRPV4 (Q9HBA0 whole entry): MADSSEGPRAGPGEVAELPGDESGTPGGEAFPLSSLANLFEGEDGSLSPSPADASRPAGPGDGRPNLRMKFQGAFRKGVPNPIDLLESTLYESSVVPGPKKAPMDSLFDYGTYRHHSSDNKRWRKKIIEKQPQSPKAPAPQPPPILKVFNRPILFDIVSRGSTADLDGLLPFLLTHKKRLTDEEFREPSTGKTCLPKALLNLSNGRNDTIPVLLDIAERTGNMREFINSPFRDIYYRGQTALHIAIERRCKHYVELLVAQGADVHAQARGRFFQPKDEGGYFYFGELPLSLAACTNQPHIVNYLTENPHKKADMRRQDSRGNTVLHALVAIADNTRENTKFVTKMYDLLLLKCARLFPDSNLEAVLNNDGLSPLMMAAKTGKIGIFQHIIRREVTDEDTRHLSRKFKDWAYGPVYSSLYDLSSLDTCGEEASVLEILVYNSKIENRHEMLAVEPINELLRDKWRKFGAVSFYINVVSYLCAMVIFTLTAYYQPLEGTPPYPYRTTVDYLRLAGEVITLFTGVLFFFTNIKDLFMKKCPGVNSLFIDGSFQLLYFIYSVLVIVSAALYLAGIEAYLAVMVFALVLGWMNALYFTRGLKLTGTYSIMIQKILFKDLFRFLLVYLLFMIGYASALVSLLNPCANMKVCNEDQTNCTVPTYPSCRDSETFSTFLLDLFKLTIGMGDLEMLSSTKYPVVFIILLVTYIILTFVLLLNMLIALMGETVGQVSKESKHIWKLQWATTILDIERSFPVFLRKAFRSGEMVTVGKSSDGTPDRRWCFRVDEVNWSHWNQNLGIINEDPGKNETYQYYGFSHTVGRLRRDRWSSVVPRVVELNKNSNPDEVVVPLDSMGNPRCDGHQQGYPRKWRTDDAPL

For C[C@H]1CCCN1c1ncc(-c2cccc(NC(=O)Cn3cnc4c3c(=O)n(C)c(=O)n4C)n2)cn1 [Formula (Ia)], the “serum biomarkers of hepatotoxicity (ALT, AST, ALP, GGT)” value [1] was “did not elevate serum biomarkers of hepatotoxicity or acute phase response”, the “Fold Selectivity Compared to TRPA1” value (hNav1.2) was >100 Fold and the “Fold Selectivity Compared to TRPA1” value (hTRPV4) was ~170 Fold. For the same molecule, the “Fold Selectivity Compared to TRPA1” value (hTRPV3) was >300 Fold.
